Tested on: cortical slices
Assay: [3H]GABA release from prefrontal cortical slices
Format: cell-based, mice
Details: 20 mM KCl
Experimental: FIG. 2A is a line graph of [^3H]GABA release fraction/total fraction versus time (mins). Cortical slices were preloaded with [^3H]GABA for 30 min in the presence of b-alanine (1 mM), an inhibitor of [^3H]GABA uptake by glial cells, aminooxyacetic acid (0.1 mM), an inhibitor of GABA degradation, and nipecotic acid (1 mM), an inhibitor of the GABA transporter in neurons. Basal and depolarization (20 mM KCl)-evoked release of [^3H]GABA were monitored sequentially. Controls (open circles) and NRG1 (closed circles). FIG. 2B is a line graph of percent [^3H]GABA release versus NRG1 concentration (nM). Basal (open circles) K+ evoked (closed circles). […] FIG. 2D is a line graph of cumulative counts versus mIPSC amplitude (pA). Controls (open circles) and NRG1 (closed circles). FIG. 2E is a line graph of cumulative counts versus mIPSC interevent interval (ms). Controls (open circles) and NRG1 (closed circles). FIG. 2F is a bar graph of mIPSC (percent) in control and NRG1 treated pyramidal neurons in prefrontal cortical slices (n=12). Amplitude (clear) and Frequencies (hatched). FIG. 2G is a bar graph of percent eIPSC amplitude in prefrontal cortical slices treated with NRG1 versus control or washout. n=12, *p<0.01. Representative eIPSCs of control, NRG1-treated, or NRG1-treated/washed slices are shown on top. FIG. 2H is a line graph of percent eIPSC amplitude versus NRG1 (nM). n=6, *p<0.05, **p<0.01. FIG. 2I is a bar graph of K^+ evoked [^3H]GABA release (percent) (left axis, clear rectangles) and eIPSC amplitude (percent) (right axis, hatched rectangles) in prefrontal cortical slices treated with NRG1, denature NRG1, or BDNF. n=8 for [^3H]GABA release; for eIPSCs, n=6 for control, NRG1, and denatured NRG1, and n=4 for BDNF. *p<0.05, #p<0.05; **p<0.05, ##<0.01.
NRG1 may regulate GABAergic neurotransmission. To test this hypothesis, the effects of NRG1 on GABA release in cortical slices were determined by both biochemical and electrophysiological approaches. Basal [^3H]GABA release was low, at a rate of 3.75±0.35% (n=8) of total radioactivity per 10 min (FIG. 2A). Treatment of slices with 20 mM KCl, a condition known to depolarize neurons, increased [^3H]GABA release by 2.5-3.5 folds within 10 min (FIG. 2A). NRG1 had no effect on basal [^3H]GABA release; by contrast, it increased depolarization-evoked GABA release in a dose-dependent manner (FIG. 2B). […] Furthermore, the NRG regulation remained unchanged in the presence of antagonists of metabotropic glutamate receptors, cholinergic receptors, serotonin receptors, adrenergic receptors and/or dopamine receptors. As a control, BDNF decreased depolarization-evoked GABA release and eIPSCs in cortical slices, in agreement with earlier studies (Canas, et al., Brain Res, 1016:72-78 (2004); Frerking, et al., J Neurophysiol, 80:3383-3386 (1998)).

COc1cc2ncnc(Nc3cccc(Cl)c3)c2cc1OC [AG1478]
depolarization-evoked [3H]GABA release (substance alone, no other exogenous agent, AG1478/AG879 5 mM [sic]): decreased
NRG1-enhanced evoked GABA release (substance given with exogenous NRG1): prevented

— US20130224223A1, “Compositions and Methods for Treating Neurological Disorders” (GEORGIA REGENTS UNIVERSITY, priority 2007, published 2013)
